For assay [1], the target named is T1, BACE1 (beta-secretase 1) (Homo sapiens, UniProt P56817).
T1 construct: commercial BACE1 enzyme (Sigma); amine-coupled on CM5 chip for SPR, free enzyme in FRET assay
Nature of the assay: FRET substrate cleavage assay (Sigma kit). The assay is classed as biochemical.

Assay [2] deals with T1, BACE1 (beta-secretase 1). Nature of the assay: SPR (Biacore T200, steady-state affinity). The assay is classed as binding. On the technique in general: SPR reads the build-up and loss of mass on a sensor chip optically.
The target of assay [3] is T2, Aβ1-42 (amyloid-β1-42) oligomer (Homo sapiens, UniProt P05067).
T2 construct: gene APP; commercial 42-residue peptide (Sigma), cut from amyloid precursor protein (APP residues 672-713); oligomer, amine-coupled on CM5 chip
Put plainly: SPR (Biacore T200, steady-state affinity). It counts as binding.

One molecule from publication PMC6066535, “Polypharmacology of Berberine Based on Multi-Target Binding Motifs” (Frontiers in Pharmacology, 2018) can be followed below.

Structures are written as SMILES.

T1 sequence (P56817 46-501): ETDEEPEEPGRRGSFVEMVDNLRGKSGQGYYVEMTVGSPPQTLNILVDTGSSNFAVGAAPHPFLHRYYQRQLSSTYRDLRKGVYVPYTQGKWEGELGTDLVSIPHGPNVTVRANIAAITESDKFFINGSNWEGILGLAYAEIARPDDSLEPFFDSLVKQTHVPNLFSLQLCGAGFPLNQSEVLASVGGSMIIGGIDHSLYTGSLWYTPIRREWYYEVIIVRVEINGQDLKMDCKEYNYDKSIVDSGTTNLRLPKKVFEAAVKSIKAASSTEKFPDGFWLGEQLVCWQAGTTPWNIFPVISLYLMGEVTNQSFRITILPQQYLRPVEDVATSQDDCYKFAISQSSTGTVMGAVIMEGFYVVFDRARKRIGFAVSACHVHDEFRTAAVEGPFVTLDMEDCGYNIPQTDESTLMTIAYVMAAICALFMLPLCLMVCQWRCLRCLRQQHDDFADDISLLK
T2 sequence (P05067 672-713): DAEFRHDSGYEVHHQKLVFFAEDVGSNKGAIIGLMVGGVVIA

In the case of `COc1ccc2cc3[n+](cc2c1OC)CCc1cc2c(cc1-3)OCO2` [berberine], the IC50 (in general, the concentration at which inhibition is half-maximal) against BACE1 (beta-secretase 1) [1] worked out at 63000 nM. Further, the figures for the Kd (on BACE1 (beta-secretase 1) [2]; in assay [3]) were 1260 nM and 1490 nM, respectively.
